Data from US7300944B2, “Pyrazolo[3,4-b]pyridin-6-ones as GSK-3 inhibitors” (Pfizer Inc., priority 2003, dated 2007).

Target: GSK-3 (Homo sapiens, UniProt P49841)
Assay: GSK-3 inhibition, cell-free 33P-ATP peptide substrate SPA assay
Type: biochemical
Details: read-out: inhibitory activity against GSK-3, expressed as IC50
Method: The specific activity of a compound, stereoisomer, or prodrug of formula (I) in inhibiting GSK-3 can be determined in both cell-free and cell-based assays, both of which have been previously described in the relevant art. See, for example, U.S. Pat. Nos. 6,417,185 and 6,489,344, the disclosures of which are incorporated herein by reference in their entirety.
A cell-free assay can be generally carried out by incubating GSK-3 with a peptide substrate, radiolabeled ATP (e.g., for example, γ^33P- or γ^32P-ATP, both of which are available from Amersham; Arlington Heights, Ill.), magnesium ions, and the compound to be assayed. […] The amount of γ^33P or […] remaining in each well after washing is then quantified to determine the amount of radiolabeled phosphate incorporated into the peptide substrate. […]
Another example of a GSK-3 assay, similar to the one described hereinabove, is as follows: enzyme activities are assayed as the incorporation of ^33P from gamma phosphate of ^33P-ATP (Amersham; Arlington Heights, Ill.; catalog #AH-9968) into biotinylated peptide substrate PKTP-KKAKKL. […] The final concentration of ATP is 0.5 μM (final specific radioactivity of […]), and the final concentration of substrate is 0.75 μM. […] Radioactivity associated with the beads is then quantified by scintillation counting. […]

Sequence of GSK-3 (P49841 whole entry): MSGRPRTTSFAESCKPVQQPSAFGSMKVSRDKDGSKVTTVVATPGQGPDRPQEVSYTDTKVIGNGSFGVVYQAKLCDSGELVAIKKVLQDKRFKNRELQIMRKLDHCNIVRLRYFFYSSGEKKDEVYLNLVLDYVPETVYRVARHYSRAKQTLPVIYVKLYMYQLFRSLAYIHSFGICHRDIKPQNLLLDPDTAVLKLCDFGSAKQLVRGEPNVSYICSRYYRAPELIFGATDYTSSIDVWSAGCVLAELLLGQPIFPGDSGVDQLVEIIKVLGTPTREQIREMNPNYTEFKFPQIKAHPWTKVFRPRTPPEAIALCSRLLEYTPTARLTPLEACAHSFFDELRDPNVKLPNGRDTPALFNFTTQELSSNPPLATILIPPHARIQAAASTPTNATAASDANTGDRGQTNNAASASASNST

COc1nccc(C2CC(=O)Nc3n[nH]c(C4CCC4)c32)n1 (stereo not shown) [Example 45, 3-Cyclobutyl-4-(2-methoxy-pyrimidin-4-yl)-2,4,5,7-tetrahydro-pyrazolo[3,4-b]pyridin-6-one]
IC50: 6.5 nM
